1 compound from patent publication US20090074885A1, “Reversible Hydrophobic Modification of Drugs for Improved Delivery to Cells” (Roche Madison Inc., priority 2003, published 2009) can be followed below.

SMILES strings stand for the structures.

This assay relates to cells. The assay can be described thus: Testing of mixing chamber: PI uptake in cells. The format is cell-based. The following applies: PI in DMF and isotonic glucose through mixing chamber. The source says: Development of a Mixing Chamber. Due to the instability of the RRH-PI prodrugs in water, it was necessary to dissolve them in a small amount of pharmaceutically acceptable organic solvent (OS) and mix them with an aqueous solution immediately prior to delivery. Rapid and efficient mixing was critical for optimum delivery and minimalization of toxicity due to the organic solvent. A passive mixing chamber with colliding flows was utilized to mix the drug/RRH-prodrug (dissolved in a carrier solvent such as an organic solvent) with an aqueous solution immediately prior use. Two syringe pumps (Harvard Pumps, PHD 2000) were utilized to deliver the solutions to the mixing chamber. Typically mixtures were 1:10 by volume with 0.67 μl of PI or RRH-PI/OS solution (7.48 mM) diluted with 6.7 μl of isotonic glucose (ITG), buffer, or media per sec, for a total delivery volume of 220 μl (0.150 μmol of PI or RRH-PI) over 30 sec (final organic solvent concentration of 9.1% by vol.).
The mixing chamber (FIG. 3) was constructed from 18 G stainless steel tubing (38 mm in length) by drilling a 0.2 mm hole at a 45 degree angle in the tubing wall and then inserting 30 G stainless steel tubing. The 30 G stainless tubing was angled and advanced into the 18 G tubing so as to be centered within the larger tubing and then soldered in place. […]

`CC[N+](C)(CC)CCC[n+]1c(-c2ccccc2)c2cc(N)ccc2c2ccc(N)cc21.[I-].[I-]` [PI, Propidium iodide, reference compound]: the “PI uptake in cells” value was “very little PI uptake in cells”.
